What is called IC50 is the concentration that gives 50% inhibition.

The target in this test is T1, purified human HDAC6 (Homo sapiens, UniProt Q9UBN7).
T1 construct: purchased BPS Bioscience 5006
T1 sequence (Q9UBN7 1-1215): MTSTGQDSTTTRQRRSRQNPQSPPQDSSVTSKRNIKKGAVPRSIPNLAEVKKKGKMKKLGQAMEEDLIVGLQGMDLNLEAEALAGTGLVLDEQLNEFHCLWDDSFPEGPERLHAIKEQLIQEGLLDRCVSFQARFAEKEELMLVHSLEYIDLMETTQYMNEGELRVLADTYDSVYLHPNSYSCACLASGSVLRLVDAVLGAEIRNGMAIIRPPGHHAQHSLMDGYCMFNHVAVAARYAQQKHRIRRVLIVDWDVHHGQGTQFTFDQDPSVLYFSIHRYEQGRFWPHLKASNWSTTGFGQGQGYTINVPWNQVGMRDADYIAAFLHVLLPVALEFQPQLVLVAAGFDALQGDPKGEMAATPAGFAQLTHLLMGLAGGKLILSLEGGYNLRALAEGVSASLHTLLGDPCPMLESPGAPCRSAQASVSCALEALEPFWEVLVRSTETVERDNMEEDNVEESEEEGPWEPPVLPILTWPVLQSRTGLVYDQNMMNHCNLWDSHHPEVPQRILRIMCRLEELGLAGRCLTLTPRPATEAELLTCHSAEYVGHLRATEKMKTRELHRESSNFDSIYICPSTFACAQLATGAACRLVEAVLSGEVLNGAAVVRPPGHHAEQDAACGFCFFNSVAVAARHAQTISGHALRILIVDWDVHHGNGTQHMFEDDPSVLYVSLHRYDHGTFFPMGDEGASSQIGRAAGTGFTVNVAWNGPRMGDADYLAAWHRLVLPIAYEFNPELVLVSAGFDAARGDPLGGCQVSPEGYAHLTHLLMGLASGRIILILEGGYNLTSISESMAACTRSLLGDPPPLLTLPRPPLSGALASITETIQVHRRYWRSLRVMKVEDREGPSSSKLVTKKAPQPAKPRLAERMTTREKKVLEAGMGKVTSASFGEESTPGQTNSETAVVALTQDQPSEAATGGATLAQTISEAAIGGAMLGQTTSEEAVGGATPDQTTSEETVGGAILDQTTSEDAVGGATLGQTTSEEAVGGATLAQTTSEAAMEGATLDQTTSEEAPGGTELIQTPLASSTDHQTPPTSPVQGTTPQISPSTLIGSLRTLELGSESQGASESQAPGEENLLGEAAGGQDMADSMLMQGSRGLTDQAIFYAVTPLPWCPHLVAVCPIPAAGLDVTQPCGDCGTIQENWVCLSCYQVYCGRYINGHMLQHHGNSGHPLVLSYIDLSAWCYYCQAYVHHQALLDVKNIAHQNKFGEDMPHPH
As to the kind of experiment: HDAC6 Enzyme Assay. The test is classed as biochemical. Conditions: purified human HDAC6, substrate Ac-Arg-Gly-Lys(Ac)-AMC, 1 hour at 30° C. The procedure:
To measure the inhibition of HDAC6 activity, purified human HDAC6 (BPS Bioscience; Cat. No. 5006) is incubated with substrate Ac-Arg-Gly-Lys(Ac)-AMC peptide (Bachem Biosciences; Cat. No. I-1925) for 1 hour at 30° C. in the presence of test compounds or vehicle DMSO control. The reaction is stopped with the HDAC inhibitor trichostatin A (Sigma; Cat. No. T8552) and the amount of Arg-Gly-Lys-AMC generated is quantitated by digestion with trypsin (Sigma; Cat. No. T1426) and subsequent measurement of the amount of AMC released using a fluorescent plate reader (Pherastar; BMG Technologies) set at Ex 340 nm and Em 460 nm. Concentration response curves are generated by calculating the fluorescence increase in test compound-treated samples relative to DMSO-treated controls, and enzyme inhibition (IC50) values are determined from those curves.
Turning to `CN(C)Cc1cc(C(=O)Nc2ccc3ncc(C(=O)NO)cc3c2)cc(C(F)(F)F)c1` [Compound I-1, 6-{[3-[(dimethylamino)methyl]-5-(trifluoromethyl)benzoyl]amino}-N-hydroxyquinoline-3-carboxamide], the IC50 lay within 100 to 500 nM.

Compound `O=C(NO)c1cnc2ccc(Oc3cccc(Cl)c3)cc2c1` [Compound I-2, 6-(3-chlorophenoxy)-N-hydroxyquinoline-3-carboxamide] came in with an IC50 of 100 to 500 nM.

On to `COc1ccc2cc(C(=O)NO)cnc2c1` [Compound I-3, N-hydroxy-7-methoxyquinoline-3-carboxamide], for which the IC50 was > 500 nM.

Consider `O=C1CCc2c(Oc3ccc4cc(C(=O)NO)cnc4c3)ccnc2N1` [Compound I-4, N-hydroxy-7-[(7-oxo-5,6,7,8-tetrahydro-1,8-naphthyridin-4-yl)oxy]quinoline-3-carboxamide], for which the IC50 fell in the range of 100 to 500 nM.

Compound `COc1ccc(C(=O)Nc2ccc3cc(C(=O)NO)cnc3c2)cc1` [Compound I-5, N-hydroxy-7-[(4-methoxybenzoyl)amino]quinoline-3-carboxamide] came in with an IC50 of 100 to 500 nM.

For the compound `O=C(NO)c1cnc2ccc(NC(=O)C3CC3)cc2c1` [Compound I-6, 6-[(cyclopropylcarbonyl)amino]-N-hydroxyquinoline-3-carboxamide], the IC50 is < 100 nM.

`O=C(NO)c1cnc2ccc(Nc3ccccc3)cc2c1` [Compound I-7, 6-anilino-N-hydroxyquinoline-3-carboxamide] gave an IC50 of 100 to 500 nM.

Take `Cn1cc(-c2cc(C(=O)Nc3ccc4ncc(C(=O)NO)cc4c3)cc(C(F)(F)F)c2)cn1` [Compound I-8, N-hydroxy-6-{[3-(1-methyl-1H-pyrazol-4-yl)-5-(trifluoromethyl)benzoyl]amino}quinoline-3-carboxamide]: the IC50 was < 100 nM.

As for `O=C(NO)c1cnc2ccc(Nc3ccncc3)cc2c1` [Compound I-9, N-hydroxy-6-(pyridin-4-ylamino)quinoline-3-carboxamide], the IC50 fell in the range of 100 to 500 nM.

For the compound `CC(C)(C)OC(=O)Nc1ccc2cc(C(=O)NO)cnc2c1` [Compound I-10, tert-butyl {3-[(hydroxyamino)carbonyl]quinolin-7-yl}carbamate], the IC50 is < 100 nM.

For `O=C(NO)c1cnc2ccc(-c3ccncc3)cc2c1` [Compound I-11, N-hydroxy-6-pyridin-4-ylquinoline-3-carboxamide], the IC50 was < 100 nM.

For the compound `O=C(NO)c1cnc2ccc(Oc3ccccc3)cc2c1` [Compound I-12, N-hydroxy-6-phenoxyquinoline-3-carboxamide], the IC50 was in the range of 100 to 500 nM.

Consider `O=C(NO)c1cnc2ccc(NS(=O)(=O)c3ccccc3)cc2c1` [Compound I-13, N-hydroxy-6-[(phenylsulfonyl)amino]quinoline-3-carboxamide], for which the IC50 was < 100 nM.

On to `O=C(Nc1ccccc1)Nc1ccc2ncc(C(=O)NO)cc2c1` [Compound I-14, 6-[(anilinocarbonyl)amino]-N-hydroxyquinoline-3-carboxamide], for which the IC50 is < 100 nM.

As to `O=C(NO)c1cnc2cc(Oc3cccc(Cl)c3)ccc2c1` [Compound I-15, 7-(3-chlorophenoxy)-N-hydroxyquinoline-3-carboxamide], the IC50 was 100 to 500 nM.

Turning to `O=C(NO)c1cnc2cc(Oc3ccc(Cl)cc3)ccc2c1` [Compound I-16, 7-(4-chlorophenoxy)-N-hydroxyquinoline-3-carboxamide], the IC50 fell in the range of 100 to 500 nM.

On to `O=C(NO)c1cnc2ccc(NCc3ccccc3)cc2c1` [Compound I-17, 6-(benzylamino)-N-hydroxyquinoline-3-carboxamide], for which the IC50 was < 100 nM.

Regarding `O=C(NO)c1cnc2ccc(CCc3ccccc3)cc2c1` [Compound I-18, N-hydroxy-6-(2-phenylethyl)quinoline-3-carboxamide], the IC50 is < 100 nM.

Turning to `COc1ccc2ncc(C(=O)NO)cc2c1` [Compound I-19, N-hydroxy-6-methoxyquinoline-3-carboxamide], the IC50 was > 500 nM.

Take `O=C(NO)c1cnc2ccc(NC(=O)c3ccccc3)cc2c1` [Compound I-20, 6-(benzoylamino)-N-hydroxyquinoline-3-carboxamide]: the IC50 is < 100 nM.

As for `CC(C)(C)OC(=O)Nc1ccc2ncc(C(=O)NO)cc2c1` [Compound I-21, tert-butyl {3-[(hydroxyamino)carbonyl]quinolin-6-yl}carbamate], the IC50 is < 100 nM.

As to `COc1ccc(C(=O)Nc2ccc3ncc(C(=O)NO)cc3c2)cc1` [Compound I-22, N-hydroxy-6-[(4-methoxybenzoyl)amino]quinoline-3-carboxamide], the IC50 is < 100 nM.

Regarding `O=C(NO)c1cnc2cc(Oc3ccnc(NC(=O)C4CC4)c3)ccc2c1` [Compound I-23, 7-({2-[(cyclopropylcarbonyl)amino]pyridin-4-yl}oxy)-N-hydroxyquinoline-3-carboxamide], the IC50 fell in the range of 100 to 500 nM.

As for `O=C(NO)c1cnc2cc(Nc3ccccc3)ccc2c1` [Compound I-24, 7-anilino-N-hydroxyquinoline-3-carboxamide], the IC50 is < 100 nM.

With `O=C(NO)c1cnc2cc(-c3ccc(Cl)cc3)ccc2c1` [Compound I-25, 7-(4-chlorophenyl)-N-hydroxyquinoline-3-carboxamide], the IC50 was 100 to 500 nM.

For `O=C1CCc2c(Oc3ccc4ncc(C(=O)NO)cc4c3)ccnc2N1` [Compound I-26, N-hydroxy-6-[(7-oxo-5,6,7,8-tetrahydro-1,8-naphthyridin-4-yl)oxy]quinoline-3-carboxamide], the IC50 was in the range of 100 to 500 nM.

In turn, `O=C(NO)c1cnc2ccc(-c3ccc(Cl)cc3)cc2c1` [Compound I-27, 6-(4-chlorophenyl)-N-hydroxyquinoline-3-carboxamide] returned an IC50 of 100 to 500 nM.

For `O=C(NO)c1cnc2cc(Nc3ccncc3)ccc2c1` [Compound I-28, N-hydroxy-7-(pyridin-4-ylamino)quinoline-3-carboxamide], the IC50 is < 100 nM.

`O=C(NO)c1cnc2ccc(Oc3ccc(Cl)cc3)cc2c1` [Compound I-29, 6-(4-chlorophenoxy)-N-hydroxyquinoline-3-carboxamide]: the 50% inhibitory concentration (IC50) lay within 100 to 500 nM.

Take `O=C(NO)c1cnc2ccc(Nc3ccc(Cl)cc3)cc2c1` [Compound I-30, 6-[(4-chlorophenyl)amino]-N-hydroxyquinoline-3-carboxamide]: the IC50 was < 100 nM.

Regarding `O=C(NO)c1cnc2ccc(Oc3ccnc(NC(=O)C4CC4)c3)cc2c1` [Compound I-31, 6-({2-[(cyclopropylcarbonyl)amino]pyridin-4-yl}oxy)-N-hydroxyquinoline-3-carboxamide], the IC50 is < 100 nM.

In turn, `O=C(NO)c1cnc2ccc(Oc3ccncc3)cc2c1` [Compound I-32, N-hydroxy-6-(pyridin-4-yloxy)quinoline-3-carboxamide] showed an IC50 of 100 to 500 nM.

As for `O=C(NO)c1cnc2cc(-c3ccncc3)ccc2c1` [Compound I-33, N-hydroxy-7-pyridin-4-ylquinoline-3-carboxamide], the IC50 lay within 100 to 500 nM.
